# In patent US20080161338A1, “Novel Pyrrolodihydroisoquinolines as Pde 10 Inhibitors” (ALTANA PHARMA AG, priority 2005, published 2008):
row,Structure (SMILES),melting point [°C]
1,"COc1cc2c(cc1OC)-c1c(-c3nc(C4CC4)no3)c(-c3cc(C)c(O)c(C)c3)c(C)n1C(C)C2 (stereo not drawn) [Example 2, (5RS)-4-[1-(3-Cyclopropyl-[1,2,4]oxadiazol-5-yl)-8,9-dmethoxy-3,5-dimethyl-5,6-dihydro-pyrrolo[2,1-a]isoquinolin-2-yl]-2,6-dimethyl-phenol]",174 to 175
2,"COc1cc2c(cc1OC)-c1c(-c3nc(C)no3)c(-c3cc(C)c(O)c(C)c3)c(C)n1CC2 [Example 5, 4-[8,9-Dimethoxy-3-methyl-1-(3-methyl-[1,2,4]oxadiazol-5-yl)-5,6-dihydro-pyrrolo[2,1-a]isoquinolin-2-yl]-2,6-dimethyl-phenol]",218 to 221
3,"COc1cc2c(cc1OC)-c1c(-c3ncc(C)o3)c(-c3cc(C)c(O)c(C)c3)c(C)n1CC2 [Example 6, 4-[8,9-Dimethoxy-3-methyl-1-(5-methyl-oxazol-2-yl)-5,6-dihydro-pyrrolo[2,1-a]isoquinolin-2-yl]-2,6-dimethyl-phenol]",222 to 224
4,"COc1cc2c(cc1OC)-c1c(-c3nc(C)no3)c(-c3cc(C)c(O)c(C)c3)c(C)n1C(C)C2 (racemic) [Example 1, (5RS)-4-[8,9-Dimethoxy-3,5-dimethyl-1-(3-methyl-[1,2,4]oxadiazol-5-yl)-5,6-dihydro-pyrrolo[2,1-a]isoquinolin-2-yl]-2,6-dimethyl-phenol]",182 to 184
5,"COc1cc2c(cc1OC)-c1c(-c3nc(-c4ccccc4)no3)c(-c3cc(C)c(O)c(C)c3)c(C)n1C(C)C2 (racemic) [Example 3, (5RS)-4-[8,9-Dimethoxy-3,5-dimethyl-1-(3-phenyl-[1,2,4]oxadiazol-5-yl)-5,6-dihydro-pyrrolo[2,1-a]isoquinolin-2-yl]-2,6-dimethyl-phenol]",203 to 206
6,"COc1cc2c(cc1OC)-c1c(-c3nc(-c4ccccc4)no3)c(-c3cc(C)c(O)c(C)c3)c(C)n1CC2 [Example 4, 4-[8,9-Dimethoxy-3-methyl-1-(3-phenyl-[1,2,4]oxadiazol-5-yl)-5,6-dihydro-pyrrolo[2,1-a]isoquinolin-2-yl]-2,6-dimethyl-phenol]",191 to 193
